What was measured:
[1] = system: murine intestinal microbiota; assay: Murine fecal microbiota analysis (qRT-PCR, 16S rRNA gene) in Adnp+/− mouse model; type: in vivo
Description: (§1) All procedures involving animals in the Adnp-mutated mouse model were approved by the Animal Care and Use Committee of Tel Aviv University and the Israeli Ministry of Health. Adnp heterozygous mice (Adnp^+/−) on an ICR background (an outbred mouse line), a model for the ADNP syndrome (Hacohen-Kleiman et al. 2018), were housed in a 12-h light/12-h dark cycle facility with free access to rodent chow and water. Genotyping was performed by Transnetyx (Memphis, Tenn.). After genotyping, the mice were housed in separate cages based on sex, genotype and treatment (up to five mice per cage), for two weeks prior to beginning of NAP treatment.
(§2) NAP peptide was custom made as described in (Hacohen-Kleiman et al. 2018). Prior to behavioral tests, intranasal treatment was administered daily to 1-month-old male and female mice (0.5 μg/5 μl/mouse/dose). For intranasal administration, the peptide was dissolved in a vehicle solution, termed DD, in which each milliliter included 7.5 mg of NaCl, 1.7 mg of citric acid monohydrate, 3 mg of disodium phosphate dihydrate, and 0.2 mg of benzalkonium chloride solution (50%). Each mouse was handheld in a semi-supine position with nostrils facing the investigator. A pipette tip was used to administer 5 μl/two nostrils. The mouse was handheld until the solution was entirely absorbed (˜10 s). Nasal NAP application was performed daily, once a day, for 45 days (5 days a week). After 45 days of treatment, in days of scheduled behavioral tests, NAP was applied 2 h before the test.
Fecal pellets (1-2/mice) were collected 45 days after the beginning of treatment (NAP or DD) and stored at −80° C. until DNA purification procedures. The samples were thawed on ice mixed with 400 μl of sterile PBS/sample followed by mechanical disruption of the sample using a BeadBug microtube homogenizer (Daniel Biotech, Rehovot, Israel) for 2 minutes at 4,000 rpm. A 25 μl sample of lysozyme solution (20 mg/ml) was added, and the samples were incubated with shaking for 30 min at 37° C. on a thermo shaker racking platform. Next, 20 μl proteinase K (20 mg/ml) was included and the samples were thoroughly mixed with 400 μl of sterile lysis buffer (20 mM Tris HCl, 300 mM NaCl, 400 mM EDTA and 1% SDS) and incubated with shaking for 60 min at 56° C. on a thermo shaker racking platform. Next, 300 mg sterile zirconium beads and 150 μl of phenol was added to the samples followed by homogenization (twice for 40 sec. at 4,000 rpm, Daniel biotech, Rehovot, Israel). Then, 150 μl of CI-solution (chloroform-isoamyl alcohol 24:1) was added, mixed and submitted for centrifugation 13,000 rpm at room temperature for 5 minutes, Eppendorf Centrifuge 5417R (Eppendorf, Hamburg, Germany). A 600 μl volume of supernatant was removed and placed in a sterile 2 mL Eppendorf tube. 150 μl of CI-solution was then included and the samples were subjected to centrifugation as above. A 400 μl of aqueous, clear top phase was removed and placed in a sterile 2 mL Eppendorf tube. Then, the 400 μl of DNA solution was mixed with 100 μl of precipitation solution (40 mM EDTA 1.2M sodium acetate and 4 mg/ml glycogen). 1.3 mL of ice-cold 100% ethanol was added, the samples were then mixed and stored over night at −20° C. for DNA precipitation followed by centrifugation (13,000 rpm) at 4° C. The supernatant was discarded and the pellet washed with 500 μl ice-cold 70% ethanol followed by centrifugation for 5 minutes at 13,000 rpm, 4° C. (this step was repeated twice). The pellet was dried in the Speed Vac (Eppendorf Concentrator 5301) for 15 minutes and then re-suspended in 100 μl sterile water. Next, the samples were mixed on the shaker for 10 minutes at room temperature. In the next step, the samples were further purified using Qiagen Purification Kit according to the manufacturer's instructions ([…], Hilden, Germany). DNA was eluted in 100 μl sterile water and stored at −20° C. for long storage. […]

[2] = system: human microbiota-harboring mice suffering from subacute ileitis; settings: gut inflammation model; cited from earlier work
Adnp+/− mice [3] = settings: exogenous administration of NAP; cited from earlier work
Adnp p.Tyr718* mice = assay: Visual evoked potential in CRISPR/Cas9 Adnp p.Tyr718* mice; type: in vivo, mouse; settings: Adnp p.Tyr718* mice (discovered in males), NAP treatment
Text: We have developed another Adnp mutated mouse model using CRISP/Cas9 technology. The mice carry the most prevalent ADNP syndrome mutation (e.g. Adnp p.Tyr718* in the mouse corresponding to ADNP pTyr719* in the human). […] Monitoring visual evoked potential provides an objective observation of aberrant ADNP activity on one hand and its correction by treatment, e.g. by NAP peptide on another hand. Given the results in Example 1, gut microbiota samples are now being analyzed and are correlated also to visual evoked potential responses of males and females, coupling biomarkers for better diagnostics and clinical monitoring. The following bacteria in gut microbiota are tested and correlated with changes in visual evoked potential in subjects having aberrant ADNP activity: Bifidobacterium, Clostridium, Bacteroides, Faecalibacterium, Eubacterium, Ruminococcus, Peptococcus, Peptostreptococcus, Parabacteroides, Escherichia coli, Verrucomicrobia, Lactobacillus, Clostridium coccoides group, Mouse Intestinal Bacteroides (MIB) Enterococcus genus (gEncocc) and Clostridium Cluster IV (sgClep).

[4] = Body weight of Adnp+/− mice; type: in vivo, mouse; settings: male Adnp+/− cohort, NAP treatment
Description: as §1
as §2, with “Nasal NAP application was performed daily, once a day, for 45 days (5 days a week). After 45 days of treatment, in days of scheduled behavioral tests, NAP was applied 2 h before the test.” left out

Adnp+/− mice [5] = assay: Open field behavior of Adnp+/− mice; type: in vivo, mouse
Description: as §1, §2
The test provides a unique opportunity to systematically assess novel environment exploration, general locomotor activity, and anxiety-related behavior in rodents. […] The distance moved and time spent in the entire open field, as well as in its inner defined quadrants (center, border) was recorded using the EthoVision XT video tracking system and software (Noldus Inc. Leesburg, VA). […]

[6] = female Adnp+/− mice, fecal samples, intranasal NAP 0.5 μg/mouse daily, 45 days
[7] = females, genotype and NAP treatment effect
[8] = male Adnp+/− mice, fecal samples, intranasal NAP 0.5 μg/mouse daily, 45 days
[9] = males, genotype and NAP treatment effect

NAPVSIPQ
Changes in microbiota (overall effect of NAP treatment) ([1]; Adnp deficient mice): partially reverses
Total Eubacterial loads ([1]; female Adnp+/+ mice, fecal samples, NAP treated (data not shown)): essentially lower total Eubacterial loads
Trending genotype increases in microbiota groups corrected by NAP treatment ([1]; female Adnp+/− mice): significantly corrected two trending genotype increases
Clostridium coccoides group (Coer) abundance [1, 6]: significant NAP-dependent decreases
Enterococcus genus (gEncocc) numbers [1, 6]: lower fecal Enterococcus genus (gEncocc) numbers
Bacteroides/Prevotella spp (Bac) abundance [1, 7]: neither affected by genotype nor by NAP treatment
Bifidobacterium genus (BIF) abundance [1, 7]: neither affected by genotype nor by NAP treatment
Enterobacteriaceae (Entero) abundance [1, 7]: neither affected by genotype nor by NAP treatment
Eubacteriaceae (EubV3) abundance [1, 7]: neither affected by genotype nor by NAP treatment
Mouse Intestinal Bacteroides (MIB) abundance [1, 7]: neither affected by genotype nor by NAP treatment
Clostridium coccoides group (Coer) intestinal numbers ([1]; male Adnp+/+ controls, NAP treated compared to placebo treated (data not shown)): higher intestinal numbers
Genotype affected microbiota groups whose deficit was reversed by NAP treatment ([1]; male Adnp+/− mice): four out of five
Bifidobacterium genus (BIF) abundance [1, 8]: decreased to control levels
Clostridium coccoides group (Coer) abundance [1, 8]: except for Clostridium coccoides group (Coer) decreased to control levels
Lactobacillus group (Lacto) abundance [1, 8]: decreased to control levels
Mouse Intestinal Bacteroides (MIB) abundance [1, 8]: decreased to control levels
Total Eubacterial loads (EubV3) [1, 8]: decreased to control levels
Bacteroides/Prevotella spp (Bac) abundance [1, 9]: neither affected by genotype nor by NAP treatment
Clostridium Cluster IV (sgClep) abundance [1, 9]: neither affected by genotype nor by NAP treatment
Enterobacteriaceae (Entero) abundance [1, 9]: neither affected by genotype nor by NAP treatment
Enterococcus genus (gEncocc) abundance [1, 9]: neither affected by genotype nor by NAP treatment
Anti-inflammatory effects [2]: anti-inflammatory NAP effects were observed
Behavioral and developmental defects (Adnp+/− mice [3]): at least partially reverse behavioral and developmental defects
Aberrant visual evoked potential patterns (Adnp p.Tyr718* mice): rapidly corrected
Body weight [4]: increased weight
Behavioral changes (overall effect of NAP treatment) (Adnp+/− mice [5]; Adnp deficient mice): partially reverses
Time spent in the center area (open field) (Adnp+/− mice [5]; Adnp+/+, Adnp+/− and NAP treated Adnp+/− mice, FIG. 3B): did not reveal significant changes
Frequency entrance to the center area (open field) (Adnp+/− mice [5]; untreated male Adnp+/− mice vs Adnp+/+ (p<0.01) and vs NAP treated Adnp+/− mice (p<0.05), FIG. 3A): significantly higher frequency entrance in to the center area compared to Adnp^+/+ mice and NAP treated Adnp^+/− mice
